For data set [1] the following is noted: cited from earlier work; for plasma half-life (t1/2) / Cmax: typical dose of 200-400 mg, 25 mg, or 2 mg for thalidomide, lenalidomide, or pomalidomide; for Cmax: read-out: maximum plasma concentration (Cmax).
For data set [2], the target named is SALL4 ZnF domains and DDB1ΔB-CRBN (Homo sapiens, UniProt Q96SW2+Q9UJQ4). Briefly: TR-FRET in vitro CRBN binding assay. As to conditions: SALL4ZnF2; in accordance with cellular potency in degradation of SALL4. On the procedure: Before TR-FRET measurements were conducted, the reactions were incubated for 15 minutes at RT. […] The TR-FRET signal of each data point was extracted by calculating the 520/490 nm ratios.

The target in a further data set is T1, SALL4 (Homo sapiens, UniProt Q96SW2+Q9UJQ4).
T1 construct: endogenous in cells; host or cells: Kelly, SK-N-DZ, HEK293T (western blot)
Briefly: Western blot of SALL4 protein levels in human cell lines. The class given is cell-based. As to conditions: for SALL4 degradation in CRBN−/− cells: CRBN−/− Kelly and HEK293T cells; for SALL4 protein levels by western blot: 24 hours; for effect of co-treatment on IMiD-induced SALL4 degradation: co-treatment with thalidomide, 5 μM bortezomib, 5 μM MLN4924, 0.5 μM MLN7243, HEK293T, SK-N-DZ cells. On the procedure:
HEK293T cells were cultured in DMEM supplemented with 10% dialyzed fetal bovine serum (FBS) and 2 mM L-Glutamine. SK-N-DZ cells were cultured in DMEM supplemented with 10% dialyzed FBS, 0.1 mM Non-Essential Amino Acids (NEAA) and 2 mM L-Glutamine. H661, MM1s and Kelly cells were cultured in RPMI1640 supplemented with 10% dialyzed FBS. H9 hESC cells were cultured in Essential 8 (Gibco) media on Matrigel-coated nunc tissue culture plates.
(§1) Samples were run on 4-20%, AnyKD or 10% (in-vitro ubiqutination assay) SDS-PAGE Gels (Bio-rad), and transferred to PVDF membranes using the iBlot 2.0 dry blotting system (Thermo Fisher Scientific). Membranes were blocked with LiCor blocking solution (LiCor), and incubated with primary antibodies overnight, followed by three washes in LiCor blocking solution and incubation with secondary antibodies for one hour in the dark. After three final washes, the membranes were imaged on a LiCor fluorescent imaging station (LiCor). When Anti-mouse IgG, HRP Antibody was used, after three washes, the membranes were incubated with Amersham ECL Prime Western Blotting Detection Reagent for 1 minute and subjected to imaging by Amersham Imager 600 (GE).

The next data set deals with T2, mmSALL4 (Mus musculus, UniProt Q8BX22).
T2 construct: endogenous in cells; host or cells: TC1 mouse embryonic stem cells
Briefly: Western blot of mmSALL4 in mouse embryonic stem cells. The class given is cell-based. As to conditions: mESC, increasing concentrations, 24 hours. On the procedure:
HEK293T cells were cultured in DMEM supplemented with 10% dialyzed fetal bovine serum (FBS) and 2 mM L-Glutamine. SK-N-DZ cells were cultured in DMEM supplemented with 10% dialyzed FBS, 0.1 mM Non-Essential Amino Acids (NEAA) and 2 mM L-Glutamine. H661, MM1s and Kelly cells were cultured in RPMI1640 supplemented with 10% dialyzed FBS. H9 hESC cells were cultured in Essential 8 (Gibco) media on Matrigel-coated nunc tissue culture plates. TC1 mouse embryonic stem cells (mESCs) were adapted to gelatin cultures and fed with KO-DMEM (Gibco) supplemented with 15% stem cell-qualified fetal bovine serum (FBS, Gemini), 2 mM L-glutamine (Gibco), 20 mM HEPES (Gibco), 1 mM sodium pyruvate (Gibco), 0.1 mM of each non-essential amino acids (Gibco), 0.1 mM 2-mercaptoethanol (Sigma), […] mLIF (Gemini).
Cells were treated with compounds as indicated and incubated for 24 hours, or as indicated. Samples were run on 4-20%, AnyKD or 10% (in-vitro ubiqutination assay) SDS-PAGE Gels (Bio-rad), and transferred to PVDF membranes using the iBlot 2.0 dry blotting system (Thermo Fisher Scientific). Membranes were blocked with LiCor blocking solution (LiCor), and incubated with primary antibodies overnight, followed by three washes in LiCor blocking solution and incubation with secondary antibodies for one hour in the dark. […]

Data set [3] has as its system IMiD-dependent CRL4^CRBN substrates. Briefly: TMT quantification mass spectrometry proteomics, IMiD-dependent neo-substrates (hESC, Kelly, SK-N-DZ, MM1s cells). As to conditions: for substrate specificity: proteins degraded across cell lines: hESC, MM1s, Kelly, SK-N-DZ cells expressing detectable levels of the proteins; for number of substrates identified (rank order): proteomics, treatment with different IMiDs. The class given is cell-based, human. As to the method:
Since degradation is mediated through CRL4^CRBN, and because CRBN expression levels are high in the central nervous system (CNS), the effects of IMiDs were assessed in two different neuroblastoma cell lines, Kelly and SK-N-DZ cells, as well as the commonly used multiple myeloma cell line, MM1s, as a control.
Proteins were precipitated using methanol/chloroform.

A further data set has as its target Flag-mmSALL4 (UniProt Q8BX22+Q96SW2). Briefly: Western blot of transiently transfected Flag-mmSALL4 in Kelly cells. As to conditions: Y415F, P418S, I419V, L430F, Q435H. The class given is cell-based, mouse. On the procedure: as §1, with “Cells were treated with compounds as indicated and incubated for 24 hours, or as indicated. Samples” for “Samples”
(§2) hsCRBN, hsSALL4, mmSALL4 and drSALL4 were PCR amplified and cloned into a pNTM-Flag based vector. Mutagenesis was performed using the Q5 site-directed mutagenesis kit (NEB, USA) with primers designed using the BaseChanger web server (http://nebasechanger.neb.com/).
For transient transfection, 0.2 million cells were seeded per well in a 12 well plate on day one. On day two, cells were transfected with 200-300 ng of plasmid (pNTM-Flag containing gene of interest) using 2 μL of lipofectamine 2000 transfection reagent (Invitrogen). […]

The next data set deals with Flag-hsSALL4. Description: Western blot of transiently transfected Flag-hsSALL4 (WT or mutant) in Kelly cells. The class given is cell-based, human. The conditions noted are these: 24 hours. As to the method: as §1, with “Cells were treated with compounds as indicated and incubated for 24 hours, or as indicated. Samples” for “Samples”
as §2
For transient transfection, 0.2 million cells were seeded per well in a 12 well plate on day one. On day two, cells were transfected with 200-300 ng of plasmid (pNTM-Flag containing gene of interest) using 2 μL of lipofectamine 2000 transfection reagent (Invitrogen). On day three, desired concentration of IMiD was added to each well and cells were harvested after 24 hours for western blot analysis using the protocol described above.

A further data set relates to SALL4 mRNA. Description: Quantitative RT-PCR of total SALL4 mRNA in H9 hES cells. The conditions noted are these: 10 μM thalidomide, 24 hours, normalized to GAPDH. The class given is cell-based, human. As to the method:
RNA was isolated using the RNeasy Plus mini kit (Qiagen) and cDNA created by reverse transcription using ProtoScript II reverse transcriptase (NEB) following the manufacturer's instructions. The following primer sets from IDT were used with SYBR Green Master Mix (Applied Biosystems) to probe both GAPDH and total SALL4 levels:
Analysis was performed on a CFX Connect Real-Time PCR System (Bio-Rad) in a white 96-well PCR plate. Relative expression levels were calculated using the […] method.

[4] abbreviates: Kelly, SK-N-DZ, HEK293T and H661 cells, increasing concentrations.

T1 sequence (Q9UJQ4 whole entry): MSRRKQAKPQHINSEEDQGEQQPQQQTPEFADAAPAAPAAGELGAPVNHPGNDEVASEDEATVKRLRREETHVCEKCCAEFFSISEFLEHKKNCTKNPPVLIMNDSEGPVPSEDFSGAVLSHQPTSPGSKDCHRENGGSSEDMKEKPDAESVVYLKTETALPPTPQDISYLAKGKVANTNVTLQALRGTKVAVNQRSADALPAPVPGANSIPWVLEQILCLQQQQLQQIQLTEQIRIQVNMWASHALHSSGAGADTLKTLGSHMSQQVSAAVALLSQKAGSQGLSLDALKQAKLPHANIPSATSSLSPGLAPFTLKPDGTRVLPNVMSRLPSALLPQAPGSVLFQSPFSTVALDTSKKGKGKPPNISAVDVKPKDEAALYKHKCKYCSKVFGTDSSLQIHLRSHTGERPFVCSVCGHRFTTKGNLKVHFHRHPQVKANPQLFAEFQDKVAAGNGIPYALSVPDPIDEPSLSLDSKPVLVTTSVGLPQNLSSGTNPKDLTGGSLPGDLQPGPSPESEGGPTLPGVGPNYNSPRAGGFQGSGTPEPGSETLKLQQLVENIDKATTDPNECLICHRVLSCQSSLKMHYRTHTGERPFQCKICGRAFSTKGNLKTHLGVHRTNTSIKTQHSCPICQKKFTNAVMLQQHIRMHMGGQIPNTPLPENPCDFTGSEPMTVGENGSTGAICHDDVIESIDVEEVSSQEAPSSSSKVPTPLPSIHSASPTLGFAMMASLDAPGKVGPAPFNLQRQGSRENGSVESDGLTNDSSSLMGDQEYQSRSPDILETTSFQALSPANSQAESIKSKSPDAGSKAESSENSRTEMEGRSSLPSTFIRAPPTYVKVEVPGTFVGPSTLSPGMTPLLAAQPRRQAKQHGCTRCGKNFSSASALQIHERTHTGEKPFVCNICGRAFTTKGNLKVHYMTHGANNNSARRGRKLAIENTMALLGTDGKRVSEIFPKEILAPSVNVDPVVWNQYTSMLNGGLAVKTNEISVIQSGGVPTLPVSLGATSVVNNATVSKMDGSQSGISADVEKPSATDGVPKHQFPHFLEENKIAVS
T1 sequence (Q96SW2 whole entry): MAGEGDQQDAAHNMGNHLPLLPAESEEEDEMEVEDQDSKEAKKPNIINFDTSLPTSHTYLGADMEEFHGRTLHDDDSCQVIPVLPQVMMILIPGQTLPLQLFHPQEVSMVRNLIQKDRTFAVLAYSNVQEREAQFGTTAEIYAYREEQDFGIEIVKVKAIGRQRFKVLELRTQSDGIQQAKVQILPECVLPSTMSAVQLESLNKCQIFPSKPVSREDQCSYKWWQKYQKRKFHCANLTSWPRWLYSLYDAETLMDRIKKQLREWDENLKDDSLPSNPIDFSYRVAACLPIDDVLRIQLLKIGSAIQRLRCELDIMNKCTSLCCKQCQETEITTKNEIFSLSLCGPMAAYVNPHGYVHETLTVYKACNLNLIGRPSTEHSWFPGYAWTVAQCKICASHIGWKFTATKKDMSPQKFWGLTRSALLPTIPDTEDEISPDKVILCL
T1 sequence (Q16531 2-1140 partner limits assumed): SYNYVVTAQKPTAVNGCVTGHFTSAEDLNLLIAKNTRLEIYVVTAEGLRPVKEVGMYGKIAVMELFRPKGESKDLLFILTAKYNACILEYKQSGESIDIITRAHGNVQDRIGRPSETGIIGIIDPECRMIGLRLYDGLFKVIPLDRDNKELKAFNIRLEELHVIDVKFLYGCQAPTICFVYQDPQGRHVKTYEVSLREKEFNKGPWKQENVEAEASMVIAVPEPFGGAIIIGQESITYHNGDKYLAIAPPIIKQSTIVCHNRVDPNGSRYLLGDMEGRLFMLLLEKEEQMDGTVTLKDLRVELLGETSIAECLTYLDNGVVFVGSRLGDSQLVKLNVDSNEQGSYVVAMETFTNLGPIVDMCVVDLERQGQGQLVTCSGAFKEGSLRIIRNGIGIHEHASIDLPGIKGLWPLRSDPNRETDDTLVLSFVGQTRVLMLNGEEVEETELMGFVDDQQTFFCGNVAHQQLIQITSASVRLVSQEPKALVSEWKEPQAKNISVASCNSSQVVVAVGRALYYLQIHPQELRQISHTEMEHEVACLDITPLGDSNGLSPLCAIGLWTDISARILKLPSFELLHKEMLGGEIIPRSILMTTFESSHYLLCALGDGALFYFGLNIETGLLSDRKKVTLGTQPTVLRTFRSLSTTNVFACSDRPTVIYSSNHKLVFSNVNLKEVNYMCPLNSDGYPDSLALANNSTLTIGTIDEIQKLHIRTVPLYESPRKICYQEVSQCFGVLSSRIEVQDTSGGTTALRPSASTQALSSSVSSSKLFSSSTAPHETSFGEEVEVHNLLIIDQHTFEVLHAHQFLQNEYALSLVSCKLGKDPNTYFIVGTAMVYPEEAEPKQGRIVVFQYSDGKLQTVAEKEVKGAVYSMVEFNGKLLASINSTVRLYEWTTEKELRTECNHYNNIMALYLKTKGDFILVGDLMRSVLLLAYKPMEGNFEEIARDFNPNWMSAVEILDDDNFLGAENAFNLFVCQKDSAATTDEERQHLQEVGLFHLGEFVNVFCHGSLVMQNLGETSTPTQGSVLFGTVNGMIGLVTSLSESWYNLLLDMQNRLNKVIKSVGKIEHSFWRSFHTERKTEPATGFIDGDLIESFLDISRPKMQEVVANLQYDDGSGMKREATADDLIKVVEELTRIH
Sequence of SALL4 ZnF domains and DDB1ΔB-CRBN (Q96SW2 whole entry, stated change not applied, the tested form may be a part): as the sequence (Q96SW2 whole entry) above
Sequence of SALL4 ZnF domains and DDB1ΔB-CRBN (Q9UJQ4 402-436, stated change not applied): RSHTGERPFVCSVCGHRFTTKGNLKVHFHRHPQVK
Sequence of Flag-mmSALL4 (Q8BX22 whole entry): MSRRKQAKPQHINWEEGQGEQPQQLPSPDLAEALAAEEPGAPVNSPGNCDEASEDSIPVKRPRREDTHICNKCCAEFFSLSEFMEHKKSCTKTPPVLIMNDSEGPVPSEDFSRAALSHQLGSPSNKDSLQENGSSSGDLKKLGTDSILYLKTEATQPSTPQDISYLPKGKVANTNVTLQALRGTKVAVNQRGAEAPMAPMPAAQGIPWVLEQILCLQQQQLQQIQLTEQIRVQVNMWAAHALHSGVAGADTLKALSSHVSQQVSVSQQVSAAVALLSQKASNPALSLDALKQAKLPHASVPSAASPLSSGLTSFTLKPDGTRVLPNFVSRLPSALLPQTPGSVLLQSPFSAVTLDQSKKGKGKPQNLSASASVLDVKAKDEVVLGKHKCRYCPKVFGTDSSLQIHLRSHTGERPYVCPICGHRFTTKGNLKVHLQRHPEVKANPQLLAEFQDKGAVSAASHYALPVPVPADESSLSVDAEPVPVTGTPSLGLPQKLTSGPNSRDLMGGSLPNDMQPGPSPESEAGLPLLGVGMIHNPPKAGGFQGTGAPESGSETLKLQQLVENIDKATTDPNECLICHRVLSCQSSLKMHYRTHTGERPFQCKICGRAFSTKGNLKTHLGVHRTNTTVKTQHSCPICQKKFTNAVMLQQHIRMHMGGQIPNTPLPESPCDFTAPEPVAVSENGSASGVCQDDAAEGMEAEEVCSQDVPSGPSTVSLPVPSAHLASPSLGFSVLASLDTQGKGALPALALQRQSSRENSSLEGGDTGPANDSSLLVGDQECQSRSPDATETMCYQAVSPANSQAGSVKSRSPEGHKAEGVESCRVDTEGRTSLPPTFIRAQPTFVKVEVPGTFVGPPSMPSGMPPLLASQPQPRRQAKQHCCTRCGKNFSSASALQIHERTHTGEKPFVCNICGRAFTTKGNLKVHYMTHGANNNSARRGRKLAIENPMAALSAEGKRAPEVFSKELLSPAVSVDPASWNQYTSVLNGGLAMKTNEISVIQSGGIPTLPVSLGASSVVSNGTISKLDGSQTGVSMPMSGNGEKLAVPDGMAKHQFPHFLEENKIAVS
Sequence of Flag-mmSALL4 (Q96SW2 whole entry): as the sequence (Q96SW2 whole entry) above
Sequence of Flag-mmSALL4 (Q16531 2-1140 partner limits assumed): as the sequence (Q16531 2-1140 partner limits assumed) above

Consider `Nc1cccc2c1CN(C1CCC(=O)NC1=O)C2=O` (stereo not shown) [lenalidomide], for which, in data set [1], the “plasma half-life (t1/2)” value was about 3 h.
For the compound `Nc1cccc2c1C(=O)N(C1CCC(=O)NC1=O)C2=O` (stereo not shown) [pomalidomide], the “rank order in binding observed with ZnF2” value in data set [2] is “Pom >Thal>>Len”. Besides, in data set [1], the “plasma half-life (t1/2)” value is about 9 h and the Cmax is 0.05 µM. Further, the “SALL4 degradation in CRBN−/− cells” value on SALL4 (increasing concentrations) is reported as “no degradation of SALL4 was observed”. For the same compound, the “SALL4 protein levels by western blot” value on SALL4 (H9 hESC, increasing doses) is reported as “dose dependent decrease in protein levels”. The “earliest time of SALL4 degradation post-treatment” value at SALL4 (Kelly cells, 1 or 5 μM pomalidomide) is 4 h. The “SALL4 protein levels by western blot” value on SALL4 (setting [4]) was “dose-dependent decrease”. Further, at mmSALL4, the “degradation of mmSALL4” value is reported as “does not promote degradation of mmSALL4”. In data set [3] (H9 hESC, 5 hours, 5 μM lenalidomide, 1 μM pomalidomide), the “further proteins degraded in proteomics” value is “degradation of additional targets including the previously characterized zinc finger protein ZFP91 (An et al., 2017), and the largely uncharacterized proteins ZBTB39, FAM83F, WIZ, RAB28, and DTWD1”. Also, in data set [3], the “substrate specificity: proteins degraded across cell lines” value is “robust degradation of ZBTB39, ZFP91, DTWD1, and ZNF653”; the “number of substrates identified (rank order)” value is reported as “Thal <Len<<Pom”.
As to `NS(=O)(=O)OC[C@H]1C[C@@H](Nc2ccnc3cc(-c4cccc(SC(F)(F)F)c4)nn23)[C@H](O)[C@@H]1O` [MLN7243], the “effect of co-treatment on IMiD-induced SALL4 degradation” value on SALL4 (Kelly) is recorded as “abrogated”.
Turning to `O=C1CCC(N2C(=O)c3ccccc3C2=O)C(=O)N1` (stereo not shown) [thalidomide, 2-(2,6-dioxopiperidin-3-yl)-1H-isoindole-1,3(2H)-dione], the “rank order in binding observed with ZnF2” value in data set [2] was “Pom >Thal>>Len”. Further, at Flag-mmSALL4, the “degradation of mmSALL4 with humanized ZnF2 domain” value is reported as “degradation was induced”. In addition, the “plasma concentration in humans” value in data set [1] (human, in vivo) was at most 10 µM. Also, in data set [1], the “plasma half-life (t1/2)” value is 6 to 8 h and the Cmax is 5 to 10 µM. Besides, in the data set on Flag-hsSALL4, the “degradation of wild type Flag-hsSALL4” value is given as “readily degraded”. Besides, in the data set on Flag-hsSALL4 (thalidomide), the “degradation of Flag-SALL4 with G416A or G416N mutations in ZnF2” value was “rendered SALL4 stable” and the “degradation of Flag-SALL4 with G600A or G600N mutations in ZnF4” value was “readily degraded”. Also, the “SALL4 degradation at plasma-relevant concentration” value at SALL4 (10 μM) is listed as “effective degradation of SALL4”. The “SALL4 degradation in CRBN−/− cells” value on SALL4 (increasing concentrations) is “no degradation of SALL4 was observed”. In addition, the “SALL4 protein levels by western blot” value at SALL4 (H9 hESC, increasing doses) is “dose dependent decrease in protein levels”. Also, the “SALL4 protein levels by western blot” value on SALL4 (setting [4]) is reported as “dose-dependent decrease”. For the same compound, the “degradation of mmSALL4” value at mmSALL4 is “does not promote degradation of mmSALL4”. For the same compound, the “SALL4 mRNA level” value with SALL4 mRNA is given as “does not reduce the level of SALL4 mRNA, but rather upregulates SALL4 mRNA”. In the data set on SALL4 mRNA (listed as Thalidomide), the “SALL4 mRNA level” value is “did not influence the expression of SALL4 mRNA”. Besides, in data set [3], the “substrate specificity: proteins degraded across cell lines” value is “robust degradation of the zinc finger transcription factors ZNF692, SALL4, and the ubiquitin ligase RNF166”; the “number of substrates identified (rank order)” value is “Thal <Len<<Pom”.
Turning to `NS(=O)(=O)OC[C@@H]1C[C@@H](n2ccc3c(N[C@H]4CCc5ccccc54)ncnc32)C[C@@H]1O` [MLN4924], on SALL4 (Kelly), the “effect of co-treatment on IMiD-induced SALL4 degradation” value is “abrogated”. Further, in data set [3] (SK-N-DZ cells, 1 μM pomalidomide + 5 μM MLN4924, 5 hours), the “effect of co-treatment on IMiD-induced degradation of targets (rescue proteomics)” value is listed as “fully abrogated IMiD-induced degradation of targets”.
Regarding `CC(C)C[C@H](NC(=O)[C@H](Cc1ccccc1)NC(=O)c1cnccn1)B(O)O` [bortezomib], on SALL4 (Kelly), the “effect of co-treatment on IMiD-induced SALL4 degradation” value is reported as “abrogated”.
With `O=C1CC[C@H](N2Cc3c(OCc4ccc(CN5CCOCC5)cc4)cccc3C2=O)C(=O)N1` [CC-220], the “degradation of ZnF targets including SALL4 (proteomics)” value in data set [3] (SK-N-DZ cells, 0.1 μM CC-220, 1 μM dBET57, 5 hours (FIG. 6C)) is listed as “effective inducers of ZnF targets including SALL4 degradation”.

The values are drawn from patent US20240142437A1, “METHODS TO PREVENT TERATOGENICITY OF IMID LIKE MOLECULES AND IMID BASED DEGRADERS/PROTACS” (DANA-FARBER CANCER INSTITUTE, INC., priority 2017, published 2024).
